Legend:
ATF2 [1] = biological target: T1, ATF2 (Homo sapiens, UniProt P15336); assay: Circular dichroism spectra; type: binding; conditions: pH 7.4
T1 construct: human ATF2 bZIP domain spans from Asp352 to Gln410; made in house; host or cells: chemical synthesis (Fmoc solid-phase peptide synthesis), no expression host
T1 sequence (P15336 352-410): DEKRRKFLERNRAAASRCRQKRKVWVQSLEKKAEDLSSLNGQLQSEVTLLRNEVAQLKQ
From the text: (§1) removed before peptide concentration determination.
(§2) Peptide samples were suspended in 20

ATF2 [2] = biological target: T1, ATF2; assay: CD thermal denaturation, ATF2/ATF2W mixture; type: binding
From the text: as §1, §2

[3] = ATF2W alone; 222 nm, 1 to 95 °C, pH 7.4, 10 mM TCEP.HCl; two-state model
Procedure: (§3) (DMF). Deprotection was performed by addition of 0.75 mL 30% pyrrolidine into the coupling reaction. Peptides were acetylated at the N-terminus by a final reaction with 3x acetic anhydride, 4.5x diisopropylethylamine in DMF for one hour at room temperature. Incubation in a cleavage mixture (95% TFA, 2.5% triisopropylsilane, 2.5% H2O, 10 mL) for 4 h at room temperature cleaved the peptide from the resin and removed side chain protecting groups.
(§4) 2.5% DODT was added to the cleavage cocktail for ATF2. The resin was removed by filtration and cleaved peptides were precipitated in diethyl ether at -80°C and centrifuged.
This pellet was washed a further four times with diethyl ether before it was dried overnight at room temperature. Peptides were resuspended in 1:1 water:acetonitrile (0.1% TFA) before purification using RP-HPLC with a Jupiter Proteo column (4-μm particle size, 90 Å pore size, 250 × 10 mm; Phenomenex) using a water:acetonitrile gradient (0.1% TFA). Peptide masses and purity (>95%) were verified by electrospray ionisation mass spectrometry. Upon solubilising in buffer, peptides were centrifuged to ensure insoluble/aggregated material was removed before peptide concentration determination.
Circular Dichroism: An Applied Photophysics Chirascan was used for CD measurements, with a 200 µL sample in a 1 mm path length CD cell. […]

ATF2-CRE DNA interaction = biological target: T2, ATF2-CRE DNA interaction (Homo sapiens, UniProt P15336); assay: FP antagonism assay ATF2-CRE; type: biochemical; conditions: up to 12 μM ATF2W
T2 construct: human ATF2 bZIP domain spans from Asp352 to Gln410; made in house; host or cells: chemical synthesis (Fmoc solid-phase peptide synthesis), no expression host
T2 sequence (P15336 352-410): T1 sequence (P15336 352-410)
Procedure: (§5) Fluorescence polarization (FP) was next utilized to confirm that ATF2W binding induces the intended antagonism of the ATF2-CRE interaction. […] To assess ATF2W antagonism, 625 nM ATF2, which corresponded to 80% of the maximum DNA binding, was incubated with CRE DNA (10 nM) and varied concentrations of ATF2W (29 nM-12 μM). […] This represents a ∼ 3-fold selectivity for ATF2. […] As the peptide library was designed using established coiled coil interaction rules, it was expected that many sequences would bind the target.
as §3, §4
(§6) This pellet was washed a further four times with diethyl ether before it was dried overnight at room temperature. […]

CREB1-CRE complex = biological target: T3, CREB1-CRE complex (Homo sapiens, UniProt P16220); assay: FP antagonism assay CREB1-CRE; type: biochemical; conditions: FP IC50, CREB1-CRE vs ATF2-CRE
T3 construct: Ala283 to Asp341
T3 sequence (P16220 283-341 isoform P16220-1): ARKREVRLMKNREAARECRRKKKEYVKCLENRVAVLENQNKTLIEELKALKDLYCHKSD
Procedure: as §5, §3, §4, §6

cJun-TRE complex = biological target: T4, cJun-TRE complex (Homo sapiens, UniProt P05412); assay: FP antagonism assay cJun-TRE; type: biochemical
T4 construct: In the case of the CREB1 and cJun bZIP domains

DLX5/H-Box complex = assay: FP antagonism assay DLX5/H-Box; type: biochemical; conditions: FAM-H-Box DNA, over the concentration range tested
FAM-CRE DNA = assay: FP binding of ATF2W to CRE DNA; conditions: ATF2W 9 nM-10 μM, FAM-CRE DNA 10 nM, up to 1000x excess
Procedure: as §1, §2
Post-melt scans at 20°C confirmed the
Sequential 2 µL injections of ATF2W (50 µM)
Data from a control experiment whereby […]
errors are given as one standard deviation.
Fluorescence polarisation: Fluorescence polarisation was measured in a CLARIOstar […]
chloride, 5 mM MgCl2, 10 mM TCEP, pH 7.4 buffer. Palindromic FAM-CRE DNA oligo was […]
purchased from Merck: 5’[6FAM]- […]. 200 µM of the oligo was […]
prepared in water and then annealed by heating to 95°C for 10 minutes before cooling slowly to room temperature to give a 100 µM duplex stock. Samples containing 10 nM FAM-CRE and a serial dilution of ATF2 (12 nM-10 µM) were prepared and incubated at room temperature for 1 hour before transferring to the assay plate for measurement. Data were fit to a one site binding model. For antagonism experiments, the ATF2 concentration required for 80% response was selected. Samples containing 10 nM FAM-TRE, 625 nM ATF2 and a serial dilution of ATF2W (29 nM-12 µM) were prepared and incubated at room temperature for 2 hours before transferring to the assay plate for measurement. CREB1/CRE, cJun/TRE and DLX5/H-box DNA antagonism were determined by the equivalent experiments, using the FAM-CRE oligo above; FAM-TRE DNA oligoes: 5’-[6FAM]-[…], 5’- […]
[6FAM]-[…]; and palindromic FAM-H-Box oligo: 5’-[6FAM]- […]

Substance: Ac-LEQQLEELAQENEELEKEAAELQQQIARLKNEVAKLENENKTLDREIKALQREYSHKSD-NH2 [ATF2W]
- increase in helicity upon mixing, relative to the average (ATF2 [1]; 1:1 mixture with ATF2 (5 μM each) vs average of individual components (10 μM each), 20 mM potassium phosphate, 150 mM potassium fluoride, 10 mM TCEP.HCl, 222 nm): 32%
- 222/208 ratio of heterodimer spectrum (ATF2 [1]; 1:1 mixture with ATF2 (5 μM each)): 0.8
- ΔTm relative to ATF2W alone (ATF2 [2]; heterodimeric ATF2/ATF2W sample vs ATF2W alone): 18 °C
- Tm (ATF2 [2]; heterodimeric ATF2/ATF2W sample, 222 nm, 1 to 95 °C, pH 7.4, 10 mM TCEP.HCl, two-state model): 55 °C
- Tm [3]: 37 °C
- ATF2-CRE antagonism at top concentrations (ATF2-CRE DNA interaction): reducing the FP value to that of free DNA
- fold selectivity for ATF2 over CREB1 (CREB1-CRE complex): ~3 -fold
- fold selectivity for ATF2 over cJun (cJun-TRE complex; FP IC50, cJun-TRE vs ATF2-CRE): ~3 -fold
- IC50 (cJun-TRE complex; FP, FAM-TRE DNA, equivalent experiment, pH 7.4): 1850 ± 213 nM
- antagonism of DLX5/H-Box interaction (DLX5/H-Box complex): minimal antagonism
- interaction with CRE DNA (FAM-CRE DNA): does not interact with CRE DNA
